We go through 13 compounds from patent EP4741392A1, “1H-PYRAZOLO[4,3-C]PYRIDINE COMPOUND, AND COMPOSITION THEREOF AND USE THEREOF” (Shenzhen TargetRx Co., Ltd., priority 2023, dated 2025).

Common to all, as to assay: Kinase activity inhibition assay (HTRF TK Kit), selectivity
Type in all cases: biochemical

One assay addresses T1, TEC (Homo sapiens, UniProt P42680).
T1 construct: purchased Carna 08-182
T1 sequence (P42680 1-631): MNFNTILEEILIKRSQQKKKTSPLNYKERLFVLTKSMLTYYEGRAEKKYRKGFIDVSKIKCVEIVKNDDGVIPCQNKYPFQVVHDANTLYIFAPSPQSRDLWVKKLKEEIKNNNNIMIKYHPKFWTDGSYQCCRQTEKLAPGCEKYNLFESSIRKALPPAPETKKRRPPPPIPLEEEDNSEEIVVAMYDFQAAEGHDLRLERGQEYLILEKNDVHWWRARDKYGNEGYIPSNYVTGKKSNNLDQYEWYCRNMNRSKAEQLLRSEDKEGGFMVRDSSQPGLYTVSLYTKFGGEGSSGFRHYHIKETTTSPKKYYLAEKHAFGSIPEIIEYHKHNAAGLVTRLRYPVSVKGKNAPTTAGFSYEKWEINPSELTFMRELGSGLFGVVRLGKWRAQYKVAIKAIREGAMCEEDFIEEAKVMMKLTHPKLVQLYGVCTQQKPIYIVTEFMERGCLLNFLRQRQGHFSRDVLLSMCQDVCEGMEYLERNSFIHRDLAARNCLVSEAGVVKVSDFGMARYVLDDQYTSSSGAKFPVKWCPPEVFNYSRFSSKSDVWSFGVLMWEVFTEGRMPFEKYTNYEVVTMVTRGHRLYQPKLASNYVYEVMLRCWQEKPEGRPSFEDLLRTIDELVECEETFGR
From the text: (§1) In this assay, the HTRF TK Kit (Catalog No. 62TK0PEC) provided by Cisbio was used to detect the inhibitory activity of compounds on BTK kinase, BTK T474I kinase and BTK C481 S kinase and the selectivity of compounds relative to EGFR, ITK and TEC kinases.
(§2) Reagents and consumables: BTK kinase (Invitrogen, Catalog No. PV3587), BTK C481S (Carna, Product No. 08-547), BTK T474I(SignalChem Product No. B10-12HH), ITK (Cama, Product No. 08-181), EGFR (Cama, Product No. 08-115), TEC (Carna, Product No. 08-182), HTRF-TK kit (Cisbio, Product No. 62TK0PEC), MgCl2 (Sigma, Product No. M1028), MnCl2 (Sigma, Product No. M1787), DTT (Sigma, Product No. D0632), ATP (Sigma, Product No. A7699-1g), DMSO (Sigma, Product No. D2650), 384-well plate (PE, Product No. 6008280).
(§3) The entire operation steps were carried out on ice, and the total reaction volume was 10µL. A compound (4µL), substrate and ATP (4µL), and kinase (2µL) were added in sequence to a 384-well plate, and the plate was shaken for 30 seconds. The mixture was reacted at room temperature for an appropriate time, and then the detection reagent was added. The resulting mixture was reacted at room temperature for 1 hour, and then the plate was assayed with a microplate reader. The specific steps were as follows: • a) a 1 × kinase buffer solution required for the kinase assay was calculated according to the amount of the test compound, and prepared as needed; • b) 2.5 × working concentration of a compound was prepared, 100-fold gradient concentration solutions of a compound were diluted by 40 × to the desired concentration, respectively, mixed well, and added to each well at 4 µL per well; • c) 5 × working concentration of the substrate and ATP were prepared, mixed in a ratio of 1:1 before being added to the 384-well plate, and added to each well at 4 µL per well; • d) 5 × working concentration of a kinase was prepared, 2 µL of which was added to each well; • e) the plate was shaken on a microplate shaker for 30 seconds, sealed with a sealing membrane, and the mixture was reacted at room temperature for an appropriate time; • f) 4 × working concentration of streptavidin XL-665 and TK antibody-cryptate compound were prepared, mixed in a ratio of 1:1 before being added to the 384-well plate, and added to each well at 10 µL per well; • g) the mixture was reacted at room temperature for 1 hour, and then the plate was read; • h) the wells with only substrate, ATP and 1% DMSO added but no kinase were blank control wells, and the wells with only substrate, ATP, 1% DMSO and kinase were positive control wells.
(§4) Readings: The values of 620 nm (cryptate) and 665 nm (XL665) were read with a BioTek Synerg Neo2 microplate reader, the ratio of 665/620 for each well was calculated, and the data were exported.
(§5) Data analysis: IC50 was calculated using GraphPad Prism 7.0 software.
(§6) The IC50 (half-maximal inhibitory concentration) of the compound was obtained using the following nonlinear fitting formula: Y = Bottom + (Top−Bottom)/(1+10^(∧)((LogIC50−X)*HillSlope)) [formula] • X: Log value of the compound concentration • Y: Inhibition rate (% inhibition) • Top: Maximum response • Bottom: Baseline response • HillSlope: Slope of the curve
(§7) The formula for calculating kinase inhibition rate (inhibition rate %) was: [formula]

A further assay deals with T2, ITK (Homo sapiens, UniProt Q08881).
T2 construct: purchased Carna 08-181
T2 sequence (Q08881 1-620): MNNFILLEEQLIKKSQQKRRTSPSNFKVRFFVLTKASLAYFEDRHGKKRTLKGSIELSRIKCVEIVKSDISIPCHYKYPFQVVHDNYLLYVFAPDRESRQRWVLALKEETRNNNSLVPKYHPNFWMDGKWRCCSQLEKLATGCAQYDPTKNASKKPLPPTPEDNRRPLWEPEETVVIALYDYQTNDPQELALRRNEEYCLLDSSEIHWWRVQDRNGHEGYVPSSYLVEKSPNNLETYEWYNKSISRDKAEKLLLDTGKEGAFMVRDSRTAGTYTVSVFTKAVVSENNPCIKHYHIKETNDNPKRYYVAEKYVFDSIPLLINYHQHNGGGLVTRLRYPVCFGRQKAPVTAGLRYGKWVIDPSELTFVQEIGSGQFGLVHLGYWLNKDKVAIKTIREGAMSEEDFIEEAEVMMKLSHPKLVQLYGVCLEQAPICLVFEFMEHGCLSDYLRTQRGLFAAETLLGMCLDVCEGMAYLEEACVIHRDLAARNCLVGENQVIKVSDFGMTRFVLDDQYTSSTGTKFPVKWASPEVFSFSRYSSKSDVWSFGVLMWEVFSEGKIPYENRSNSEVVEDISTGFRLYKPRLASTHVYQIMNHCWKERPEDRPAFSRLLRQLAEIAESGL
Description: as §1, §2, §3, §4, §5, §6, §7

In a further assay the target is T3, EGFR (Homo sapiens, UniProt P00533).
T3 construct: purchased Carna 08-115
Description: as §1, §2, §3, §4, §5, §6, §7

T3 sequence (P00533 669-1210 limits assumed): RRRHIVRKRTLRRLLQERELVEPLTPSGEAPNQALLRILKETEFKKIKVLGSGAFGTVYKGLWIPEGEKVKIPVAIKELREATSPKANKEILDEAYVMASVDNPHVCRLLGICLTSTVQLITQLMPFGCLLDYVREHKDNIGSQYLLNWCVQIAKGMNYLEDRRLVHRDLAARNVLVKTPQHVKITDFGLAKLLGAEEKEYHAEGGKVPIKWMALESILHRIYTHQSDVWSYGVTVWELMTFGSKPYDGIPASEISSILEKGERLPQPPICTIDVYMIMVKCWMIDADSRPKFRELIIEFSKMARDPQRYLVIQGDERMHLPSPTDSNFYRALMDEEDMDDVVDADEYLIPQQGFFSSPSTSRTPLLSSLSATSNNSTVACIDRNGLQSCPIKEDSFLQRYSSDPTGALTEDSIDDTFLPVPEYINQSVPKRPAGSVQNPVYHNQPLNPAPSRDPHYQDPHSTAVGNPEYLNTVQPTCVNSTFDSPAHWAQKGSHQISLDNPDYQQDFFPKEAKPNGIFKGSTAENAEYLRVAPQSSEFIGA

Broadly, the IC50 is the concentration at which inhibition is half-maximal. Consider `COc1ccc(F)cc1C(=O)NCc1ccc(-c2nc(C(C)C(F)(F)F)cc3[nH]nc(N)c23)cc1` (single isomer, unassigned) [Example 2, N-(4-(3-amino-6-(1,1,1-trifluoropropan-2-yl)-1H-pyrazolo[4,3-c]pyridin-4-yl)benzyl)-5-fluoro-2-methoxybenzamide], for which the IC50 at TEC is 50 to 500 nM; at ITK, greater than 500 nM; on EGFR, 50 to 500 nM.
In the case of `COc1ccc(F)cc1C(=O)NCc1ccc(-c2nc(C(C)C(F)(F)F)cc3[nH]nc(N)c23)cc1` (single isomer, unassigned) [Example 3, N-(4-(3-amino-6-(1,1,1-trifluoropropan-2-yl)-1H-pyrazolo[4,3-c]pyridin-4-yl)benzyl)-5-fluoro-2-methoxybenzamide], the half-maximal inhibitory concentration (IC50) is 50 to 500 nM on TEC, greater than 500 nM on ITK and greater than 500 nM at EGFR.
For the compound `COc1ccc(F)cc1C(=O)NCc1ccc(-c2nc(C(C)C(F)(F)F)c(-c3ccn(C)n3)c3[nH]nc(N)c23)cc1` (single isomer, unassigned) [Example 6-1, N-(4-(3-amino-7-(1-methyl-1H-pyrazol-3-yl)-6-(1,1,1-trifluoropropan-2-yl)-1H-pyrazolo[4,3-c]pyridin-4-yl)benzyl)-5-fluoro-2-methoxybenzamide], the values for the IC50 on TEC, at ITK and on EGFR were 50 to 500 nM, greater than 500 nM and greater than 500 nM, respectively.
For `COc1ccc(F)cc1C(=O)NCc1ccc(-c2nc(C(C)C(F)(F)F)c(-c3ccn(C)n3)c3[nH]nc(N)c23)cc1` (single isomer, unassigned) [Example 6-2, N-(4-(3-amino-7-(1-methyl-1H-pyrazol-3-yl)-6-(1,1,1-trifluoropropan-2-yl)-1H-pyrazolo[4,3-c]pyridin-4-yl)benzyl)-5-fluoro-2-methoxybenzamide], the concentration for half-maximal inhibition (IC50) at TEC is 5 to 50 nM; at ITK, greater than 500 nM; on EGFR it was 50 to 500 nM.
As to `COc1ccc(F)cc1C(=O)NCc1ccc(-c2nc(C(C)C(F)(F)F)c(-c3ncccn3)c3[nH]nc(N)c23)cc1` (single isomer, unassigned) [Example 7-1, N-(4-(3-amino-7-(pyrimidin-2-yl)-6-(1,1,1-trifluoropropan-2-yl)-1H-pyrazolo[4,3-c]pyridin-4-yl)benzyl)-5-fluoro-2-methoxybenzamide], the concentration for half-maximal inhibition (IC50) at TEC was 5 to 50 nM; on ITK, greater than 500 nM; on EGFR it was greater than 500 nM.
Regarding `COc1ccc(F)cc1C(=O)NCc1ccc(-c2nc(C(C)C(F)(F)F)c(-c3ncccn3)c3[nH]nc(N)c23)cc1` (single isomer, unassigned) [Example 7-2, N-(4-(3-amino-7-(pyrimidin-2-yl)-6-(1,1,1-trifluoropropan-2-yl)-1H-pyrazolo[4,3-c]pyridin-4-yl)benzyl)-5-fluoro-2-methoxybenzamide], the IC50 was 50 to 500 nM on TEC, greater than 500 nM at ITK and greater than 500 nM at EGFR.
Turning to `COc1ccc(F)cc1C(=O)NCc1ccc(-c2nc(C(C)C(F)(F)F)cc3[nH]nc(N)c23)cc1` (stereo not drawn) [Example 1, N-(4-(3-amino-6-(1,1,1-trifluoropropan-2-yl)-1H-pyrazolo[4,3-c]pyridin-4-yl)benzyl)-5-fluoro-2-methoxybenzamide], the IC50 is greater than 500 nM on TEC, greater than 500 nM on ITK and 50 to 500 nM at EGFR.
As to `COc1ccc(F)cc1C(=O)NCc1ccc(-c2nc(C(C)C(F)(F)F)c(-c3ccn(C)n3)c3[nH]nc(N)c23)cc1` (stereo not drawn) [Example 6, N-(4-(3-amino-7-(1-methyl-1H-pyrazol-3-yl)-6-(1,1,1-trifluoropropan-2-yl)-1H-pyrazolo[4,3-c]pyridin-4-yl)benzyl)-5-fluoro-2-methoxybenzamide], the values for the concentration for half-maximal inhibition (IC50) at TEC, on ITK and at EGFR were 5 to 50 nM, greater than 500 nM and 50 to 500 nM, respectively.
The corresponding values for `COc1ccc(F)cc1C(=O)NCc1ccc(-c2nc(C(C)C(F)(F)F)c(-c3ncccn3)c3[nH]nc(N)c23)cc1` (stereo not drawn) [Example 7, N-(4-(3-amino-7-(pyrimidin-2-yl)-6-(1,1,1-trifluoropropan-2-yl)-1H-pyrazolo[4,3-c]pyridin-4-yl)benzyl)-5-fluoro-2-methoxybenzamide] are 5 to 50 nM, greater than 500 nM and 50 to 500 nM.
For `COc1ccc(F)cc1C(=O)NCc1ccc(-c2nc(C(C)C(F)(F)F)c(-c3cc(C)[nH]n3)c3[nH]nc(N)c23)cc1` (stereo not drawn) [Example 9, N-(4-(3-amino-7-(5-methyl-1H-pyrazol-3-yl)-6-(1,1,1-trifluoropropan-2-yl)-1H-pyrazolo[4,3-c]pyridin-4-yl)benzyl)-5-fluoro-2-methoxybenzamide] the same measures were 50 to 500 nM, greater than 500 nM and 50 to 500 nM.
For `COc1ccc(F)cc1C(=O)NCc1ccc(-c2ncc(-c3ccccn3)c3[nH]nc(N)c23)cc1` [Example 15, N-(4-(3-amino-7-(pyridin-2-yl)-1H-pyrazolo[4,3-c]pyridin-4-yl)benzyl)-5-fluoro-2-methoxybenzamide] the same measures were 5 to 50 nM, greater than 500 nM and 50 to 500 nM.
As for `COc1ccc(F)cc1C(=O)NCc1ccc(-c2ncc(-c3ncccn3)c3[nH]nc(N)c23)cc1` [Example 17, N-(4-(3-amino-7-(pyrimidin-2-yl)-1H-pyrazolo[4,3-c]pyridin-4-yl)benzyl)-5-fluoro-2-methoxybenzamide], the IC50 was 5 to 50 nM on TEC, greater than 500 nM at ITK and greater than 500 nM on EGFR.
As to `COc1ccc(F)cc1C(=O)NCc1ccc(-c2ncc(-c3cnccn3)c3[nH]nc(N)c23)cc1` [Example 18, N-(4-(3-amino-7-(pyrazin-2-yl)-1H-pyrazolo[4,3-c]pyridin-4-yl)benzyl)-5-fluoro-2-methoxybenzamide], the IC50 on TEC is 50 to 500 nM; at ITK it was greater than 500 nM; at EGFR, greater than 500 nM.
